We go through 8 compounds from PubChem BioAssay (NCI).

The structures appear in SMILES notation. “And” between values parts separate entries of the source, which are not always exact repeats. Identical values can stand only once.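 Method: 48-hour compound exposure of cells in 96-well plates, five concentrations, linear interpolation of endpoints. Abbreviation: GI50, concentration required for 50% inhibition of growth. The concentration for full growth arrest is given as TGI.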

Among the test systems are MDA-MB-231 breast; MOLT-4 leukemia; A498 renal; HOP-62 NSCLC; NCI-H522 lung; MDA-MB-435; BT-549 breast; COLO 205 colon; SF-295 CNS; OVCAR-4 ovarian.
Holding throughout (test): inhibition of tumour cell growth, NCI panel, 48 h

With `CN1CCN(Cc2ccc(NC(=O)c3cncc(C#Cc4cnc(N)cc4C#N)c3)cc2C(F)(F)F)CC1`, the GI50 in the test with MDA-MB-231 breast is 1.15 µM; in the test on MOLT-4 leukemia, 1.86 µM; with A498 renal, 0.227 µM; in the test on HOP-62 NSCLC, 3.33 µM; in the test on NCI-H522 lung it was 3.69 µM; in the test with MDA-MB-435 it was 1.98 µM. The GI50 in the test on BT-549 breast is 4.25 µM; with COLO 205 colon, 1.39 µM; in the test on SF-295 CNS it was 3.54 µM. Moreover, the TGI is 3.1 µM in the test on MDA-MB-231 breast; 22.3 µM in the test on MOLT-4 leukemia; 3.67 µM with A498 renal; 13.1 µM with HOP-62 NSCLC; 17.7 µM in the test with NCI-H522 lung; 11.7 µM with MDA-MB-435. The TGI in the test with BT-549 breast is 16.8 µM; in the test with COLO 205 colon it was 12.8 µM; in the test with SF-295 CNS, 15.3 µM.

As for `COc1ccc(NC(=O)/C=C(C)/C=C/C=C(C)/C=C/C2=C(C)CCCC2(C)C)cc1`, the GI50 in the test with MDA-MB-231 breast is 4.25 µM; in the test on MOLT-4 leukemia it was 2.34 µM; in the test with A498 renal it was 19.9 µM; with HOP-62 NSCLC it was 18.2 µM; with MDA-MB-435 it was 5.47 µM; with OVCAR-4 ovarian, 5.85 µM. Moreover, the GI50 in the test with BT-549 breast is 27.2 µM; in the test with COLO 205 colon it was 3.52 µM; with SF-295 CNS it was 13.3 µM. Further, the TGI in the test with MDA-MB-231 breast was 15.1 µM; in the test on MOLT-4 leukemia it was 5.96 µM; with A498 renal, 34.5 µM; with HOP-62 NSCLC it was 34.1 µM; in the test with MDA-MB-435, 19.1 µM; in the test with OVCAR-4 ovarian it was 19 µM. Also, the TGI in the test on BT-549 breast amounted to 43.3 µM; in the test with COLO 205 colon, 10.9 µM; with SF-295 CNS it was 27.2 µM.

Take `Cc1nc2ccc(Br)cc2c(=O)n1-c1ccc(NC2OCC(O)C(O)C2O)cc1` (stereo not given): the GI50 with MDA-MB-231 breast was 47.6 µM and > 100 µM; with MOLT-4 leukemia, 19.6 µM and 71.2 µM; in the test with MDA-MB-435, 36 µM and > 100 µM; in the test on BT-549 breast, 24.2 µM and 99.5 µM; with COLO 205 colon, over 100 µM. Further, the TGI with MDA-MB-231 breast, with MOLT-4 leukemia, in the test with A498 renal, with HOP-62 NSCLC, in the test with MDA-MB-435 and in the test on OVCAR-4 ovarian was over 100 µM each time. The TGI with BT-549 breast is 53.9 µM and > 100 µM; in the test on COLO 205 colon it was over 100 µM; with SF-295 CNS it was over 100 µM.

In the case of `CCCn1cnc2c(SCC(=O)O)nc(N)nc21`, the TGI with MDA-MB-231 breast, in the test on A498 renal, in the test on HOP-62 NSCLC, in the test with NCI-H522 lung, with MDA-MB-435 and with OVCAR-4 ovarian was over 100 µM in each case. The TGI with BT-549 breast, in the test with COLO 205 colon and with SF-295 CNS was over 100 µM each time.

Take `NC(=O)[C@@H](CC1CC1)[C@@H](CCC(F)(F)F)C(=O)N[C@H]1N=C(c2ccccc2)c2cccc(F)c2NC1=O`: the GI50 with MDA-MB-231 breast is 18.8 µM; with MOLT-4 leukemia, 18.5 µM; in the test with HOP-62 NSCLC it was over 100 µM; with NCI-H522 lung it was over 100 µM; in the test on MDA-MB-435, 66.7 µM; in the test on OVCAR-4 ovarian, 54.9 µM. Further, the GI50 in the test with BT-549 breast, in the test with COLO 205 colon and in the test with SF-295 CNS was over 100 µM each time. Also, the TGI in the test with MDA-MB-231 breast was 42.7 µM; in the test with MOLT-4 leukemia, over 100 µM; in the test with HOP-62 NSCLC, over 100 µM; in the test with NCI-H522 lung, over 100 µM; with MDA-MB-435, over 100 µM; in the test with OVCAR-4 ovarian it was over 100 µM. Moreover, the TGI in the test with BT-549 breast, with COLO 205 colon and in the test on SF-295 CNS was over 100 µM in each case.

On to `CNNC(=N\S(=O)(=O)c1cc(C)c(Cl)cc1SCc1ccccc1)/N=C/c1ccc([N+](=O)[O-])s1`, for which the GI50 with MDA-MB-231 breast is over 56.7 µM; in the test with MOLT-4 leukemia, over 100 µM; in the test on HOP-62 NSCLC, over 100 µM; in the test with NCI-H522 lung it was over 100 µM; in the test on MDA-MB-435 it was 18.5 µM; with OVCAR-4 ovarian, over 100 µM. Besides, the GI50 is over 100 µM in the test with BT-549 breast, 0.776 µM in the test with COLO 205 colon and over 87.7 µM with SF-295 CNS. The TGI with MDA-MB-231 breast, in the test with MOLT-4 leukemia, in the test on HOP-62 NSCLC, with NCI-H522 lung, with MDA-MB-435 and in the test with OVCAR-4 ovarian was over 100 µM in each case. In addition, the TGI in the test on BT-549 breast and in the test on SF-295 CNS was over 100 µM in each case.

On to `NCCCCC1NC(=O)C(CC(=O)O)NC(=O)CNC(=O)C(CCCN=C(N)N)NC(=O)C(N)CSSCC(C(=O)O)NC(=O)C(CC(=O)O)NC(=O)C2CCCN2C(=O)CNC1=O` (stereo not given), for which the GI50 in the test with MDA-MB-231 breast, in the test with A498 renal, with HOP-62 NSCLC, in the test on NCI-H522 lung, in the test on MDA-MB-435 and in the test with OVCAR-4 ovarian was over 100 µM in each case. Also, the GI50 with BT-549 breast, with COLO 205 colon and in the test with SF-295 CNS was over 100 µM in each case. Moreover, the TGI in the test with MDA-MB-231 breast, in the test with A498 renal, in the test on HOP-62 NSCLC, in the test on NCI-H522 lung, with MDA-MB-435 and in the test with OVCAR-4 ovarian was over 100 µM in each case. Further, the TGI with BT-549 breast, in the test on COLO 205 colon and in the test on SF-295 CNS was over 100 µM in each case.

As for `CSc1ncc(Br)c(Sc2nc(N)nc3nc[nH]c23)n1`, the GI50 in the test with MDA-MB-231 breast is 2.39 µM; with A498 renal it was 3.62 µM; in the test with HOP-62 NSCLC, 2.59 µM; with NCI-H522 lung it was 3.97 µM; in the test with MDA-MB-435, 2.5 µM; in the test on OVCAR-4 ovarian, 5.08 µM. Moreover, the GI50 with BT-549 breast was 2.64 µM; with COLO 205 colon it was 3.09 µM; in the test with SF-295 CNS, 1.15 µM. The TGI with MDA-MB-231 breast is 58.3 µM; in the test with A498 renal, 29 µM; in the test on HOP-62 NSCLC, over 100 µM; in the test with NCI-H522 lung, 20.3 µM; with MDA-MB-435, over 100 µM; with OVCAR-4 ovarian it was over 100 µM. Further, the values for the TGI in the test with BT-549 breast, with COLO 205 colon and in the test with SF-295 CNS were over 100 µM, 9.17 µM and over 100 µM, respectively.
